# Data published in paper PMC9459403, “New inhibitors of cathepsin V impair tumor cell proliferation and elastin degradation and increase immune cell cytotoxicity” (Computational and Structural Biotechnology Journal, 2022).
# Entries after “also recorded” stand apart in the source; their conditions may differ.
# Assays:
# MCF7 cells = assay: Proliferation assay (CFSE-labeled cells, flow cytometry); format: cell-based, human; details: 72 h
# Experimental: To assess the effect of cathepsin V inhibitors on cell proliferation, MCF7 cells were fluorescently labeled with carboxyfluorescein succinimidyl ester (CFSE; ImmunoChemistry Technologies, Bloomington, MN, USA) in PBS for 15 min at room temperature according to the manufacturer’s instructions. Cells were washed with PBS, resuspended in complete medium, seeded (at 4 × 10^4 cells/well) into 24-well plates, and allowed to adhere overnight. Cells were then treated with the following inhibitors: compound 7 (10 μM), E-64d (10 μM), CLIK-148 (1 μM), LHVS (10 nM), pepstatin (20 μM), their combinations, or DMSO (0.1 %) in 500 μL of medium for 72 h at 37 °C. To prepare cells for flow cytometry, cells were detached and transferred to round-bottomed polystyrene tubes and washed with PBS. Before measurement, 7-aminoactinomycin D (7-AAD; ImmunoChemistry Technologies, Bloomington, MN, USA) was added according to the manufacturer’s instructions to exclude dead cells. Therefore, the green fluorescence arising from CFSE was monitored only for viable cells. The measurement was performed using a FACSCalibur instrument (BD Biosciences, San Jose, CA, USA).
# [1] = molecular target: T1, human recombinant cathepsin L (Homo sapiens, UniProt P07711); assay: Determination of Ki values and mode of inhibition; format: biochemical; details: mean ± SD (n = 2)
# T1 construct: made in house; host or cells: Escherichia coli
# Experimental: (§1) Human recombinant cathepsin V was expressed in Pichia Pastoris, and human recombinant cathepsin L was expressed in Escherichia coli, as reported, [51]. To determine the activities of cathepsins V and L, 100 mM acetate buffer (pH 5.5), containing 0.1 % PEG 8000 (Sigma-Aldrich, St. Louis, MO, USA), 5 mM cysteine, and 1.5 mM EDTA was used. Prior to the assay, the enzyme was activated in the assay buffer for 5 min at 37 °C.
# (§2) Inhibition constants were calculated from reaction velocities measured at three substrate concentrations (0.5, 1, and 4 μM) in the presence of inhibitors at seven concentrations (0, 20, 40, 60, 80, 100, and 200 µM). The reaction was initiated by adding 90 μL of enzyme at final concentrations of 2.5 ng/mL and 0.02 nM for cathepsins V and L, respectively, to the wells of a black microtiter plate containing 5 μL of substrate and 5 μL of inhibitor. To evaluate cathepsin V and L activity, the substrate Z-Phe-Arg-AMC was used. The formation of the fluorescent degradation products was monitored as described above. All assay mixtures contained 5 % (v/v) DMSO. All measurements were performed in duplicates and repeated at least twice. The SigmaPlot® 12, Enzyme Kinetics Module™ 1.3 was used to calculate Ki values.
# Cathepsin V [2] = molecular target: T2, Cathepsin V (Homo sapiens, UniProt O60911); assay: Determination of Ki values and mode of inhibition; format: biochemical
# T2 construct: made in house; host or cells: Pichia pastoris
# Experimental: as §1, §2
# [3] = test system: cystatin F in U-937 cells; assay: Western blot of cystatin F dimer-to-monomer ratio; format: cell-based, human; details: U-937 cell lysates, 6 h treatment, 10 and 20 μM, vs control
# Experimental: Cells were treated with E-64d or compound 7 (both at 10 µM or 20 µM) for 6 h. After treatment, whole-cell lysates were prepared in RIPA buffer supplemented with cOmplete™ Protease Inhibitor Cocktail (Roche, Basel, Switzerland) and centrifuged at 16 000 × g for 20 min at 4 °C. Total protein concentration was determined using the DC assay (Biorad, Hercules, CA, USA). Proteins were separated by non-reducing SDS-PAGE and transferred to a nitrocellulose membrane using the TransBlot Turbo System (Biorad). After blocking, the membranes were incubated with primary antibodies overnight at 4 °C and with secondary antibodies for 1 h at room temperature. Bands were visualized using Clarity Max Western ECL substrate (Biorad), and protein loading was checked using Stain Free technology (Biorad). Images were acquired using the ChemiDoc ML Imaging System (Biorad), and quantification analysis was performed using Image Lab software (Biorad).
# The following primary antibodies were used: rabbit anti-cystatin F (1:375, HPA040442, Sigma), goat anti-cathepsin V (1:200, AF 1080, R&D, USA), and mouse anti-GAPDH (1:3000, 10494-I-AP, Proteintech, USA). […]
# Cathepsin V [4] = molecular target: T2, Cathepsin V; assay: Determination of binding reversibility (dilution method); format: biochemical; details: inhibitor 100 μM, cathepsin V 500 ng/ml
# Experimental: Binding reversibility was determined according to the dilution method, which measures the recovery of enzymatic activity after rapid dilution of the enzyme-inhibitor complex. Cathepsin V (500 ng/ml) was incubated in the assay buffer with the inhibitor (100 μM). Half of the reaction mixture was immediately diluted 100-fold with the assay buffer and added to the wells of a black microplate containing 5 μL of substrate (at a final concentration of 2 μM), and the activity was measured. The other half of the reaction mixture was incubated for 2 h before it was diluted 100-fold, and then the activity was measured. The assay was performed in triplicates and repeated at least two times.
# TALL-104 cells = assay: Cell viability assay (MTS); format: cell-based; details: up to 10 μM, 24 h
# Experimental: (§3) The effect of compound 7 on the viability of NK-92, TALL-104, and K-562 cells was evaluated using the MTS [3-(4,5-dimethylthiazol-2-yl)-5-(3-carboxymetoxyphenyl)-2-(4-sulfophenyl)–2H-tetrazolium] colorimetric assay (CellTiter 96 Aqueous One Solution Cell Proliferation Assay, Promega, Madison, WI, USA). NK-92, TALL-104, and K-562 cells were seeded at 2.5 × 10^4, 1 × 10^5, and 1 × 10^4 cells/well, respectively, into a 96-well microplate and treated with inhibitors (2.5, 5, or 10 µM) or DMSO (0.1 %) for 24 h. After incubation, 10 µL of the reagent MTS was added to the wells, and the absorbance of formazan was measured at 492 nm on a Tecan Infinite M1000 (Mannedorf, Switzerland). Cell viability (%) was expressed as the ratio between absorbance in the presence of the compounds and in the presence of DMSO. All assays were performed in quadruplicate and repeated at least twice.
# NK-92 cells = assay: Cell viability assay (MTS); format: cell-based; details: up to 10 μM, 24 h
# Experimental: as §3
# T2 sequence (O60911 114-334): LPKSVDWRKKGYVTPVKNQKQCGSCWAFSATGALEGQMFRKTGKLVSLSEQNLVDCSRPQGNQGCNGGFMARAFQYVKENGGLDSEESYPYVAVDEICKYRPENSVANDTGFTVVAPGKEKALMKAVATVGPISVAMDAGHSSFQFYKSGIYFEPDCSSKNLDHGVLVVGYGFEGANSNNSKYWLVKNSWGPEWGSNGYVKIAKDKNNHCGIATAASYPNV
# T1 sequence (P07711 114-333): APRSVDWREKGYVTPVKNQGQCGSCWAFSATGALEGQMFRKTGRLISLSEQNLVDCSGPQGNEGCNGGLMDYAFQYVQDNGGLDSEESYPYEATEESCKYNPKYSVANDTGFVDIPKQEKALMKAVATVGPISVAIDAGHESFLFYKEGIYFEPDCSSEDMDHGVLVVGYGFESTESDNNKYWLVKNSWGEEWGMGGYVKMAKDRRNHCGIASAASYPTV
smiles,measurement,setting,value
"O=C(NCc1cccc2ccccc12)NCC1CCN(C(=O)Oc2ccccc2)CC1 [Compound 7, Phenyl 4-((3-(naphthalen-1-ylmethyl)ureido)methyl)piperidine-1-carboxylate]",increase of fluorescence intensity of CFSE-labeled cells compared to control cells,"MCF7 cells; 10 μM, higher CFSE = less proliferation",50.6 ± 5.1%
same,"increase of relative CFSE fluorescence intensity, co-treatment with CLIK-148, LHVS, and compound 7 together",MCF7 cells; compound 7 10 μM + CLIK-148 1 μM + LHVS 10 nM,46.1 ± 5.2%
same,Cathepsin L Ki (µM),[1],no inhibition and did not inhibit cathepsin L and n.i^f and n.i
same,Cathepsin L Ki′ (µM),[1],n.i^f
same,mode of inhibition of cathepsin V,Cathepsin V [2],competitive
same,Ki,Cathepsin V [2]; mean ± SD (n = 2),88.7 ± 10.2 µM
same,cystatin F dimer-to-monomer ratio,[3],even further increased
same,binding reversibility: cathepsin V activity after 2 h incubation and 100-fold rapid dilution,Cathepsin V [4],reversible; also recorded: restored
same,viability of TALL-104 cells,TALL-104 cells,not significantly reduced
same,viability of NK-92 cells,NK-92 cells,not significantly reduced
